Reference: patent US9272990B2, “Lysophosphatidic acid receptor antagonists and their use in the treatment fibrosis” (AMIRA PHARMACEUTICALS, INC., priority 2010, dated 2016)

Each molecule was assayed against T1, Human LPA1 (Homo sapiens, UniProt Q92633) (assay: LPA1 calcium flux assay). Details: CHO cells expressing human LPA1, stimulated with 10 nM LPA; read-out: LPA1 Ca^2+ flux.
T1 construct: the full-length cDNA for human LPA1 was obtained by PCR of the reverse transcription reaction; expressed in transfected cells
T1 sequence (Q92633 whole entry): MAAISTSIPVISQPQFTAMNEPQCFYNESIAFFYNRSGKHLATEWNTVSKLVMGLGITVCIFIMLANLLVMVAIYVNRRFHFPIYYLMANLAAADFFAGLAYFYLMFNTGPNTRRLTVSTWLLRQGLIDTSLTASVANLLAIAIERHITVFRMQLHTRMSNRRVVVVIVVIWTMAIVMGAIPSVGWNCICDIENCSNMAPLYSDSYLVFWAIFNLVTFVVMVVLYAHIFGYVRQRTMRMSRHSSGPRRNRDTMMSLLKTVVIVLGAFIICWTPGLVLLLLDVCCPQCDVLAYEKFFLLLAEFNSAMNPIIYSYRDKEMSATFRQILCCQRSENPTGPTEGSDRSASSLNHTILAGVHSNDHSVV
Assay type: cell-based
Experimental: A 1.1 kb cDNA encoding the human LPA1 receptor was cloned from human lung. Human lung RNA (Clontech Laboratories, Inc. USA) was reverse transcribed using the RETROSCRIPT® kit (Ambion, Inc.) and the full-length cDNA for human LPA1 was obtained by PCR of the reverse transcription reaction. The nucleotide sequence of the cloned human LPA1 was determined by sequencing and confirmed to be identical to the published human LPA1 sequence (An et al., Biochem. Biophys. Res. Commun. 231:619 (1997). The cDNA was cloned into the pcDNA5/FRT expression plasmid and transfected in CHO cells using Lipofectamine 2000 (Invitrogen Corp., USA). Clones stably expressing human LPA1 were selected using hygromycin and identified as cells that show Ca-influx in response to LPA.
Human LPA1 or LPA3 expressing CHO cells are seeded at 20,000-45,000 cells per well in a 96-well poly-D-lysine coated plate one or two days before the assay. Prior to the assay, the cells are washed once with PBS and then cultured in serum-free media overnight. On the day of the assay, a calcium indicator dye (Calcium 4, Molecular Devices) in assay buffer (HBSS with Ca^2+ and Mg^2+ and containing 20 mM Hepes and 0.3% fatty-acid free human serum albumin) is added to each well and incubation continued for 1 hour at 37° C. 10 μl of test compounds in 2.5% DMSO are added to the cells and incubation continued at room temperature for 30 minutes. Cells are the stimulated by the addition of 10 nM LPA and intracellular Ca^2+ measured using the FLEXSTATION® 3 (Molecular Devices). IC50s are determined using Graphpad prism analysis of drug titration curves.
Work on `O=C(O)C1(c2ccc(-c3ccc(-c4sccc4C(O)CCCc4ccccc4)cc3)cc2)CC1` (single isomer, unassigned) [Compound 1-26, 1-{4′-[3-(1-hydroxy-4-phenyl-butyl)-thiophen-2-yl]-biphenyl-4-yl}-cyclopropanecarboxylic acid] yielded an IC50 of under 300 nM. `O=C(O)C1(c2ccc(-c3ccc(-c4sccc4C(O)CCCc4ccccc4)cc3)cc2)CC1` (single isomer, unassigned) [Compound 1-27, 1-{4′-[3-(1-hydroxy-4-phenyl-butyl)-thiophen-2-yl]-biphenyl-4-yl}-cyclopropanecarboxylic acid] showed an IC50 of under 300 nM. In the case of `C[C@@H](OC(=O)Nc1ccccc1-c1ccc(-c2ccc(C3(C(=O)O)CC3)cc2)cc1)c1ccccc1` [Compound 1-2, 1-[2″-((R)-1-phenyl-ethoxycarbonylamino)-[1,1′;4′,1″]terphenyl-4-yl]-cyclopropanecarboxylic acid], the IC50 is reported as under 300 nM. `C[C@@H](OC(=O)Nc1cnccc1-c1ccc(-c2ccc(C3(C(=O)O)CC3)cc2)cc1)c1ccccc1` [Compound 1-3, 1-{4′-[3-((R)-1-phenyl-ethoxycarbonylamino)-pyridin-4-yl]-biphenyl-4-yl}-cyclopropanecarboxylic acid] gave an IC50 of 300 to 1000 nM. For `C[C@@H](OC(=O)Nc1ncoc1-c1ccc(-c2ccc(C3(C(=O)O)CC3)cc2)cc1)c1ccccc1` [Compound 1-4, 1-{4′-[4-((R)-1-phenyl-ethoxycarbonylamino)-oxazol-5-yl]-biphenyl-4-yl}-cyclopropanecarboxylic acid], the IC50 was under 300 nM. `O=C(O)C1(c2ccc(-c3ccc(-c4ncccc4C(O)CCCc4ccccc4)cc3)cc2)CC1` (centres unmarked) [Compound 1-5, 1-{4′-[3-(1-hydroxy-4-phenyl-butyl)-pyridin-2-yl]-biphenyl-4-yl}-cyclopropanecarboxylic acid] gave an IC50 of under 300 nM. `O=C(O)C1(c2ccc(-c3ccc(-c4ccsc4C(O)CCCc4ccccc4)cc3)cc2)CC1` (centres unmarked) [Compound 1-6, 1-{4′-[2-(1-hydroxy-4-phenyl-butyl)-thiophen-3-yl]-biphenyl-4-yl}-cyclopropanecarboxylic acid] was tested, and the IC50 was under 300 nM. With `O=C(O)C1(c2ccc(-c3ccc(-c4ccccc4C(O)CCCc4ccccc4)cc3)cc2)CC1` (centres unmarked) [Compound 1-7, 1-[2-(1-hydroxy-4-phenyl-butyl)-[1,1′;4′,1″]terphenyl-4″-yl]-cyclopropanecarboxylic acid] the IC50 was under 300 nM. Molecule `O=C(O)CC1(c2ccc(-c3ccc(-c4ccncc4C(O)CCCc4ccccc4)cc3)cc2)CC1` (centres unmarked) [Compound 1-8, (1-{4′-[3-(1-hydroxy-4-phenyl-butyl)-pyridin-4-yl]-biphenyl-4-yl}-cyclopropyl)-acetic acid] has an IC50 of 300 to 1000 nM. `O=C(O)C1(c2ccc(-c3ccc(-c4ccncc4C(O)CCCc4ccccc4)cc3)cc2)CC1` (centres unmarked) [Compound 1-9, 1-{4′-[3-(1-Hydroxy-4-phenyl-butyl)-pyridin-4-yl]-biphenyl-4-yl}-cyclopropanecarboxylic acid] showed an IC50 of under 300 nM. Work on `Cn1ncc(-c2ccc(-c3ccc(C4(CC(=O)O)CC4)cc3)cc2)c1C(O)CCCc1ccccc1` (centres unmarked) [Compound 1-10, (1-{4′-[5-(1-hydroxy-4-phenyl-butyl)-1-methyl-1H-pyrazol-4-yl]-biphenyl-4-yl}-cyclopropyl)-acetic acid] yielded an IC50 of under 300 nM. `Cn1ncc(-c2ccc(-c3ccc(C4(C(=O)O)CC4)cc3)cc2)c1C(O)CCCc1ccccc1` (centres unmarked) [Compound 1-11, 1-{4′-[5-(1-hydroxy-4-phenyl-butyl)-1-methyl-1H-pyrazol-4-yl]-biphenyl-4-yl}-cyclopropanecarboxylic acid] showed an IC50 of under 300 nM. `O=C(O)CC1(c2ccc(-c3ccc(-c4ncccc4C(O)CCCc4ccccc4)cc3)cc2)CC1` (centres unmarked) [Compound 1-12, (1-{4′-[3-(1-hydroxy-4-phenyl-butyl)-pyridin-2-yl]-biphenyl-4-yl}-cyclopropyl)-acetic acid] showed an IC50 of under 300 nM. With `O=C(O)CC1(c2ccc(-c3ccc(-c4ccsc4C(O)CCCc4ccccc4)cc3)cc2)CC1` (centres unmarked) [Compound 1-13, (1-{4′-[2-(1-hydroxy-4-phenyl-butyl)-thiophen-3-yl]-biphenyl-4-yl}-cyclopropyl)-acetic acid] the IC50 was under 300 nM. With `O=C(O)CC1(c2ccc(-c3ccc(-c4cscc4C(O)CCCc4ccccc4)cc3)cc2)CC1` (centres unmarked) [Compound 1-14, (1-{4′-[4-(1-hydroxy-4-phenyl-butyl)-thiophen-3-yl]-biphenyl-4-yl}-cyclopropyl)-acetic acid] the IC50 was under 300 nM. For `O=C(O)C1(c2ccc(-c3ccc(-c4cscc4C(O)CCCc4ccccc4)cc3)cc2)CC1` (centres unmarked) [Compound 1-15, 1-{4′-[4-(1-hydroxy-4-phenyl-butyl)-thiophen-3-yl]-biphenyl-4-yl}-cyclopropanecarboxylic acid], the IC50 was under 300 nM. `O=C(O)C1(c2ccc(-c3ccc(-c4ncc5ccccc5c4C(O)CCCc4ccccc4)cc3)cc2)CC1` (centres unmarked) [Compound 1-16, 1-{4′-[4-(1-hydroxy-4-phenyl-butyl)-isoquinolin-3-yl]-biphenyl-4-yl}-cyclopropanecarboxylic acid] gave an IC50 of 1000 to 10000 nM. Work on `O=C(O)C1(c2ccc(-c3ccc(-c4cnccc4C(O)CCCc4ccccc4)cc3)cc2)CC1` (centres unmarked) [Compound 1-17, 1-{4′-[4-(1-hydroxy-4-phenyl-butyl)-pyridin-3-yl]-biphenyl-4-yl}-cyclopropanecarboxylic acid] yielded an IC50 of under 300 nM. In the case of `O=C(O)C1(c2ccc(-c3ccc(-c4sccc4C(O)CCCc4ccccc4)cc3)cc2)CC1` (centres unmarked) [Compound 1-18, 1-{4′-[3-(1-hydroxy-4-phenyl-butyl)-thiophen-2-yl]-biphenyl-4-yl}-cyclopropanecarboxylic acid], the IC50 is reported as under 300 nM. For `O=C(O)CC1(c2ccc(-c3ccc(-c4sccc4C(O)CCCc4ccccc4)cc3)cc2)CC1` (centres unmarked) [Compound 1-19, (1-{4′-[3-(1-hydroxy-4-phenyl-butyl)-thiophen-2-yl]-biphenyl-4-yl}-cyclopropyl)-acetic acid], the IC50 was under 300 nM. In the case of `Cn1ncc(-c2ccc(-c3ccc(C4(C(=O)O)CC4)cc3)cc2)c1Nc1cccc(-c2ccccc2)n1` [Compound 1-20, 1-{4′-[1-methyl-5-(6-phenyl-pyridin-2-ylamino)-1H-pyrazol-4-yl]-biphenyl-4-yl}-cyclopropanecarboxylic acid], the IC50 is reported as under 300 nM. In the case of `CC(CCc1ccc(Cl)cc1)Nc1c(-c2ccc(-c3ccc(C4(C(=O)O)CC4)cc3)cc2)cnn1C` (centres unmarked) [Compound 1-21, 1-(4′-{5-[3-(4-chloro-phenyl)-1-methyl-propylamino]-1-methyl-1H-pyrazol-4-yl}-biphenyl-4-yl)-cyclopropanecarboxylic acid], the IC50 is reported as under 300 nM. `Cn1ncc(-c2ccc(-c3ccc(C4(C(=O)O)CC4)cc3)cc2)c1C(O)c1cn(Cc2ccccc2)nn1` (centres unmarked) [Compound 1-22, 1-(4′-{5-[(1-benzyl-1H-[1,2,3]triazol-4-yl)-hydroxy-methyl]-1-methyl-1H-pyrazol-4-yl}-biphenyl-4-yl)-cyclopropanecarboxylic acid] was tested, and the IC50 was under 300 nM. Work on `CCn1ncc(-c2ccc(-c3ccc(C4(C(=O)O)CC4)cc3)cc2)c1C(O)CCCc1ccccc1` (centres unmarked) [Compound 1-23, 1-{4′-[1-ethyl-5-(1-hydroxy-4-phenyl-butyl)-1H-pyrazol-4-yl]-biphenyl-4-yl}-cyclopropanecarboxylic acid] yielded an IC50 of under 300 nM. Work on `CCn1ncc(-c2ccc(-c3ccc(C4(CC(=O)O)CC4)cc3)cc2)c1C(O)CCCc1ccccc1` (centres unmarked) [Compound 1-24, (1-{4′-[1-ethyl-5-(1-hydroxy-4-phenyl-butyl)-1H-pyrazol-4-yl]-biphenyl-4-yl}-cyclopropyl)-acetic acid] yielded an IC50 of under 300 nM. `Cn1ncc(-c2ccc(-c3ccc(C4(C(=O)O)CC4)cc3)cc2)c1NCc1cnc(-c2ccccc2)s1` [Compound 1-25, 1-(4′-{1-methyl-5-[(2-phenyl-thiazol-5-ylmethyl)-amino]-1H-pyrazol-4-yl}-biphenyl-4-yl)-cyclopropanecarboxylic acid] gave an IC50 of 1000 to 10000 nM.
